Measured values reported in ChEMBL document CHEMBL1201862, “PubChem BioAssay data set” (2004).
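Each compound was tested at five concentrations against cells in 96-well plates for 48 hours. GI50 = concentration required for 50% inhibition of growth.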 Activity calls are given as the source filed them. Cut-off read from the data, not from the text of the source: active = GI50 up to about 1.1 µM and inactive = higher.

Legend:
Assay in all cases: DTP human tumour cell line panel, 48 h
786-0 = system: 786-0
CCRF-CEM = system: CCRF-CEM
COLO 205 = system: COLO 205
EKVX = system: EKVX
HCC 2998 = system: HCC 2998
HOP-62 = system: HOP-62
HT-29 = system: HT-29
KM12 = system: KM12
NCI-H226 = system: NCI-H226
NCI-H460 = system: NCI-H460
NCI-H522 = system: NCI-H522
OVCAR-4 = system: OVCAR-4
OVCAR-8 = system: OVCAR-8
SF-268 = system: SF-268
SK-MEL-2 = system: SK-MEL-2
SK-MEL-5 = system: SK-MEL-5
SN12C = system: SN12C
SW-620 = system: SW-620
MDA-MB-435 = system: MDA-MB-435

Measured: GI50

CC12CC3CC(C)(C1)CC(N=[N+]=[N-])(C3)C2
inactive: 786-0 > 100 µM | CCRF-CEM > 100 µM | COLO 205 > 100 µM | EKVX > 100 µM | HCC 2998 > 100 µM | HOP-62 > 100 µM | HT-29 > 100 µM | KM12 > 100 µM | NCI-H226 > 100 µM | NCI-H460 > 100 µM | NCI-H522 > 100 µM | OVCAR-4 > 100 µM | OVCAR-8 > 100 µM | SF-268 > 100 µM | SK-MEL-2 > 100 µM | SK-MEL-5 > 100 µM | SN12C > 100 µM | SW-620 > 100 µM

C[N+](C)(C)CC1CCCC(C[N+](C)(C)C)C1O (stereo not given)
inactive: 786-0 > 100 µM | CCRF-CEM > 100 µM | COLO 205 > 100 µM | EKVX > 100 µM | HCC 2998 > 100 µM | HOP-62 > 100 µM | HT-29 > 100 µM | KM12 > 100 µM | NCI-H226 > 100 µM | NCI-H460 > 100 µM | NCI-H522 > 100 µM | OVCAR-4 > 100 µM | OVCAR-8 > 100 µM | SF-268 > 100 µM | SK-MEL-2 > 100 µM | SK-MEL-5 > 100 µM | SN12C > 100 µM | SW-620 > 100 µM

CC1(C)Cc2cc(C(=O)O)c3c(c2C1=O)COCC3
inactive: 786-0 > 100 µM | CCRF-CEM > 100 µM | COLO 205 > 100 µM | EKVX > 100 µM | HCC 2998 > 100 µM | HOP-62 > 100 µM | HT-29 > 100 µM | KM12 > 100 µM | NCI-H226 > 100 µM | NCI-H460 > 100 µM | NCI-H522 32.4 µM | OVCAR-4 > 100 µM | OVCAR-8 > 100 µM | SF-268 > 100 µM | SK-MEL-2 > 100 µM | SK-MEL-5 > 100 µM | SN12C > 100 µM | SW-620 > 100 µM

COC(=O)N/N=c1\cc(C(=O)Nc2ccc(C)c(C)c2)oc2cc(O)ccc12
inactive: 786-0 > 100 µM | CCRF-CEM > 100 µM | COLO 205 > 100 µM | EKVX > 100 µM | HCC 2998 > 100 µM | HOP-62 > 100 µM | HT-29 > 100 µM | KM12 > 100 µM | NCI-H226 > 100 µM | NCI-H460 > 100 µM | NCI-H522 > 100 µM | OVCAR-4 > 100 µM | OVCAR-8 > 100 µM | SF-268 > 100 µM | SK-MEL-2 > 100 µM | SK-MEL-5 > 100 µM | SN12C > 100 µM | SW-620 > 100 µM

C/C(CC(=O)Nc1cccc(Cl)c1C)=N\N=C(N)N
inactive: 786-0 > 100 µM | CCRF-CEM > 100 µM | COLO 205 > 100 µM | EKVX > 100 µM | HCC 2998 > 100 µM | HOP-62 > 100 µM | HT-29 > 100 µM | KM12 > 100 µM | NCI-H226 > 100 µM | NCI-H460 > 100 µM | NCI-H522 > 100 µM | OVCAR-4 > 100 µM | OVCAR-8 > 100 µM | SF-268 > 100 µM | SK-MEL-2 > 100 µM | SK-MEL-5 > 100 µM | SN12C > 100 µM

CN1CCOC(C(NC(=O)c2ccccc2)c2ccccc2)C1=O (stereo not given)
inactive: 786-0 > 100 µM | CCRF-CEM > 100 µM | COLO 205 > 100 µM | EKVX > 100 µM | HCC 2998 > 100 µM | HOP-62 > 100 µM | HT-29 > 100 µM | KM12 > 100 µM | NCI-H226 > 100 µM | NCI-H460 > 100 µM | NCI-H522 > 100 µM | OVCAR-4 > 100 µM | OVCAR-8 > 100 µM | SF-268 > 100 µM | SK-MEL-2 > 100 µM | SK-MEL-5 > 100 µM | SN12C > 100 µM | SW-620 > 100 µM

O=C1C(Cl)=C(Cl)C(=O)N1c1ccccc1Cl
inactive: 786-0 > 79.3 µM | CCRF-CEM 11.9 µM | COLO 205 > 63.7 µM | EKVX > 100 µM | HCC 2998 > 100 µM | HOP-62 > 100 µM | HT-29 > 71 µM | KM12 > 100 µM | NCI-H226 > 100 µM | NCI-H460 > 100 µM | NCI-H522 8.24 µM | OVCAR-4 > 100 µM | OVCAR-8 > 100 µM | SF-268 > 100 µM | SK-MEL-2 > 100 µM | SK-MEL-5 > 100 µM | SN12C > 100 µM | SW-620 > 52.6 µM

O=C(O)CSc1cc(-c2ccccc2)nc2ccccc12
inactive: 786-0 47.1 µM | EKVX > 100 µM | HOP-62 48.2 µM | HT-29 36.2 µM | KM12 30.5 µM | MDA-MB-435 13.3 µM | NCI-H460 38.7 µM | NCI-H522 22.6 µM | OVCAR-4 64 µM | OVCAR-8 63.2 µM | SF-268 35 µM | SK-MEL-2 26.5 µM | SK-MEL-5 30.4 µM | SN12C 36.6 µM | SW-620 44.3 µM

CCCC(=O)c1ccc2c(ccc(=O)n2C)c1
inactive: 786-0 > 100 µM | CCRF-CEM > 100 µM | COLO 205 > 100 µM | EKVX 42.2 µM | HCC 2998 > 100 µM | HOP-62 > 100 µM | HT-29 > 100 µM | KM12 > 100 µM | NCI-H226 31 µM | NCI-H460 > 100 µM | NCI-H522 31.9 µM | OVCAR-4 66.7 µM | OVCAR-8 > 100 µM | SF-268 > 100 µM | SK-MEL-2 > 100 µM | SK-MEL-5 72.9 µM | SN12C > 100 µM | SW-620 > 100 µM

O=C(O)c1cnc(-n2[nH]c3c(c2=O)CCCC3)[nH]c1=O
inactive: 786-0 > 100 µM | CCRF-CEM > 100 µM | COLO 205 > 100 µM | EKVX > 100 µM | HT-29 > 100 µM | KM12 > 100 µM | MDA-MB-435 > 100 µM | NCI-H226 > 100 µM | NCI-H460 > 100 µM | NCI-H522 > 100 µM | OVCAR-4 > 100 µM | OVCAR-8 > 100 µM | SF-268 > 100 µM | SK-MEL-2 > 100 µM | SK-MEL-5 > 100 µM | SN12C > 100 µM | SW-620 > 100 µM

CN(C(=O)C12C3C4C1C1C2C3C41C#N)C(C)(C)C (stereo not given)
inactive: 786-0 > 100 µM | CCRF-CEM > 100 µM | COLO 205 > 100 µM | EKVX > 100 µM | HCC 2998 > 100 µM | HOP-62 > 100 µM | HT-29 > 100 µM | KM12 > 100 µM | NCI-H226 > 100 µM | NCI-H460 > 100 µM | NCI-H522 > 100 µM | OVCAR-4 > 100 µM | OVCAR-8 > 100 µM | SF-268 > 100 µM | SK-MEL-2 > 100 µM | SK-MEL-5 > 100 µM | SN12C > 100 µM | SW-620 > 100 µM

CN(C)CC1CCCC(CN(C)C)C1OC(=O)c1ccccc1 (stereo not given)
inactive: 786-0 > 100 µM | CCRF-CEM > 100 µM | COLO 205 > 100 µM | EKVX > 100 µM | HCC 2998 > 100 µM | HOP-62 > 100 µM | HT-29 > 100 µM | KM12 > 100 µM | NCI-H226 > 100 µM | NCI-H460 > 100 µM | NCI-H522 > 100 µM | OVCAR-4 > 100 µM | OVCAR-8 > 100 µM | SF-268 > 100 µM | SK-MEL-2 > 100 µM | SK-MEL-5 > 100 µM | SN12C > 100 µM | SW-620 > 100 µM

O=C(NC1CCCCCC1)C1C(=O)N(C2CCCCCC2)C(=O)/C1=N\O (stereo not given)
inactive: 786-0 32.8 µM | CCRF-CEM 27.2 µM | COLO 205 17.3 µM | EKVX 36.2 µM | HCC 2998 19.5 µM | HOP-62 18.7 µM | HT-29 30.3 µM | KM12 37.1 µM | NCI-H226 35.6 µM | NCI-H460 35.7 µM | NCI-H522 19.6 µM | OVCAR-4 44.1 µM | OVCAR-8 38.6 µM | SF-268 29.1 µM | SK-MEL-2 17.1 µM | SK-MEL-5 36.1 µM | SN12C 34.7 µM | SW-620 37.6 µM

CN1C(c2ccccc2)CC(=NO)CC1c1ccccc1 (stereo not given)
inactive: 786-0 97.9 µM | CCRF-CEM 28.2 µM | COLO 205 20.2 µM | EKVX > 100 µM | HCC 2998 97.5 µM | HOP-62 > 100 µM | HT-29 35.9 µM | KM12 31.6 µM | NCI-H226 74 µM | NCI-H460 60 µM | NCI-H522 25.6 µM | OVCAR-4 40.2 µM | OVCAR-8 47.4 µM | SF-268 55.7 µM | SK-MEL-2 53.5 µM | SK-MEL-5 38.2 µM | SN12C 24.9 µM | SW-620 48.8 µM

COc1ccccc1/C=C1\C(=O)N(C(=O)c2ccc(NC(C)=O)cc2)N=C1C
inactive: 786-0 > 100 µM | CCRF-CEM > 100 µM | COLO 205 > 100 µM | EKVX > 100 µM | HCC 2998 > 100 µM | HOP-62 > 100 µM | HT-29 > 100 µM | KM12 > 100 µM | NCI-H226 > 100 µM | NCI-H460 > 100 µM | NCI-H522 > 100 µM | OVCAR-4 > 100 µM | OVCAR-8 > 100 µM | SF-268 > 100 µM | SK-MEL-2 > 100 µM | SK-MEL-5 > 100 µM | SN12C > 100 µM | SW-620 > 100 µM
